Source: patent publication US20200306337A1, “Bioactive Metabolities Encoded by the Human Microbiome Using Primary Sequence Alone” (The Rockefeller University, priority 2017, published 2020)
Non-standard residues stand in square brackets, D forms with d. Residues, ends and D or L forms follow the SMILES beside them. *: point of attachment. Tetradecanoyl(3S-OH) = CCCCCCCCCCC[C@H](O)CC(=O)*

Legend:
MRSA USA300 = assay: Two-dimensional carbenicillin-humimycin A synergy susceptibility assay; type: cell-based, Staphylococcus aureus
Description: b) Synergy assays. Synergistic β-lactam-humimycin activities were assessed through a two-dimensional (2D) susceptibility assay. Two fold serial dilutions were carried out as described above. Carbenicillin (a β-lactam antibiotic) was diluted serially from left to right, and humimycin was diluted serially from top to bottom. The highest concentration tested for both antibiotics was 32 μg/mL. Fractional inhibitory concentration (FIC) is defined as the ratio of the apparent synergistic MIC divided by the MIC of the antibiotic measured alone.

MRSA clinical isolates = type: cell-based, S. aureus
Description: a) Standard assays. Minimal inhibitory concentration (MIC) assays were performed in duplicate in 96-well microtiter plates based on the protocol recommended by Clinical and Laboratory Standards Institute (CLSI, 2012). DMSO stock solutions of syn-BNPs (12.8 mg/mL) were added to the first well in a row and serially diluted (2 fold per transfer) across the microtiter plate. The last well was reserved for a peptide-free control. Overnight cultures of bacteria were diluted 5,000-fold and 50 μL was used as an inoculum in each well. MIC values were determined by visual inspection after 18 h incubation (37° C., static growth).

Row | Structure (SMILES) | synergy with carbenicillin in inhibiting growth (MRSA USA300; FIC values ≤0.5 defines synergy, n=3) | MICs (MRSA clinical isolates) | MIC (MRSA USA300; Staphylococcus aureus, carbenicillin alone) | MIC of carbenicillin in the presence of humimycin A (MRSA USA300; in the presence of 2 μg/mL humimycin A (0.25×MIC))
1 | CCCCCCCCCCC[C@H](O)CC(=O)N[C@@H](Cc1ccc(O)cc1)C(=O)N[C@@H](CO)C(=O)N[C@H](Cc1ccc(O)cc1)C(=O)N[C@@H](Cc1ccccc1)C(=O)N[C@@H](C(=O)N[C@H](C(=O)N[C@H](C(=O)O)C(C)C)C(C)C)[C@H](C)O [Humimycin A] ({Tetradecanoyl(3S-OH)}-YS[dY]F[dT]VV-OH; C-terminus assumed) | act synergistically | 8 to 128 µg/mL | – | –
2 | CC1(C)S[C@@H]2[C@H](NC(=O)C(C(=O)O)c3ccccc3)C(=O)N2[C@H]1C(=O)O (stereo partly shown) [carbenicillin] | – | – | 32 µg/mL | 1 µg/mL
